Experimental data published in ChEMBL document CHEMBL1201862, “PubChem BioAssay data set” (2004).
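These data come from cells grown in 96-well plates and exposed to compound for 48 hours at five concentrations. GI50 marks 50% less growth.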 Active and inactive are the calls of the source. Rule as the data show it: active = GI50 up to about 1.1 µM and inactive = higher.

Tests used:
Experiment in all cases: NCI-60 cell line screen, 48 h
[1] = test system: SN12C
[2] = test system: COLO 205
[3] = test system: PC-3
[4] = test system: A549
[5] = test system: CCRF-CEM
[6] = test system: DU-145
[7] = test system: RXF 393
[8] = test system: Malme-3M
[9] = test system: IGROV-1
[10] = test system: NCI-H23
[11] = test system: A498
[12] = test system: HCT-116
[13] = test system: MDA-MB-231
[14] = test system: SF-268
[15] = test system: SK-OV-3
[16] = test system: Hs-578T
[17] = test system: HCT-15
[18] = test system: SW-620
[19] = test system: SF-295
[20] = test system: SK-MEL-2
[21] = test system: T47D
[22] = test system: NCI/ADR-RES
[23] = test system: UO-31
[24] = test system: TK-10
[25] = test system: UACC-257
[26] = test system: BT-549
[27] = test system: SNB-75
[28] = test system: CAKI-1
[29] = test system: HOP-62
[30] = test system: KM12
[31] = test system: SR
[32] = test system: MOLT-4
[33] = test system: HT-29
[34] = test system: UACC-62
[35] = test system: HL-60
[36] = test system: HCC 2998
[37] = test system: SNB-19
[38] = test system: 786-0
[39] = test system: RPMI-8226
[40] = test system: ACHN
[41] = test system: SK-MEL-5
[42] = test system: MCF7
[43] = test system: M14
[44] = test system: MDA-N
[45] = test system: U-251
[46] = test system: OVCAR-5
[47] = test system: SF-539
[48] = test system: SK-MEL-28
[49] = test system: NCI-H522
[50] = test system: EKVX
[51] = test system: MDA-MB-435
[52] = test system: K562
[53] = test system: LOX IMVI
[54] = test system: NCI-H226
[55] = test system: OVCAR-8
[56] = test system: HOP-92
[57] = test system: OVCAR-4
[58] = test system: OVCAR-3
[59] = test system: NCI-H460

Cc1cc2nc(N)n[n+]([O-])c2cc1C
GI50 [1]: > 100 µM (inactive)
GI50 [2]: > 100 µM (inactive)
GI50 [3]: > 100 µM (inactive)
GI50 [4]: > 100 µM (inactive)
GI50 [5]: > 100 µM (inactive)
GI50 [6]: > 100 µM (inactive)
GI50 [7]: > 100 µM (inactive)
GI50 [8]: > 100 µM (inactive)
GI50 [9]: > 100 µM (inactive)
GI50 [10]: > 100 µM (inactive)
GI50 [11]: > 100 µM (inactive)
GI50 [12]: > 100 µM (inactive)
GI50 [13]: > 100 µM (inactive)
GI50 [14]: > 100 µM (inactive)
GI50 [15]: > 100 µM (inactive)
GI50 [16]: > 100 µM (inactive)
GI50 [17]: > 100 µM
GI50 [18]: > 100 µM (inactive)
GI50 [19]: > 100 µM (inactive)
GI50 [20]: > 100 µM (inactive)
GI50 [21]: > 100 µM (inactive)
GI50 [22]: > 100 µM (inactive)
GI50 [23]: > 100 µM (inactive)
GI50 [24]: > 100 µM (inactive)
GI50 [25]: > 100 µM (inactive)
GI50 [26]: > 100 µM (inactive)
GI50 [27]: > 10 µM (inactive)
GI50 [28]: > 100 µM (inactive)
GI50 [29]: > 100 µM (inactive)
GI50 [30]: > 100 µM (inactive)
GI50 [31]: > 100 µM (inactive)
GI50 [32]: > 100 µM (inactive)
GI50 [33]: > 100 µM (inactive)
GI50 [34]: > 100 µM (inactive)
GI50 [35]: > 100 µM (inactive)
GI50 [36]: > 100 µM (inactive)
GI50 [37]: > 100 µM (inactive)
GI50 [38]: > 100 µM (inactive)
GI50 [39]: > 100 µM (inactive)
GI50 [40]: > 100 µM (inactive)
GI50 [41]: > 100 µM (inactive)
GI50 [42]: > 100 µM (inactive)
GI50 [43]: > 100 µM (inactive)
GI50 [44]: > 100 µM (inactive)
GI50 [45]: > 100 µM (inactive)
GI50 [46]: > 100 µM (inactive)
GI50 [47]: > 100 µM (inactive)
GI50 [48]: > 100 µM (inactive)
GI50 [49]: > 100 µM (inactive)
GI50 [50]: > 100 µM (inactive)
GI50 [51]: > 100 µM (inactive)
GI50 [52]: > 100 µM (inactive)
GI50 [53]: > 100 µM (inactive)
GI50 [54]: > 100 µM (inactive)
GI50 [55]: > 100 µM (inactive)

O=C(Nc1ccccc1)c1cc(S(=O)(=O)N2CCNC2=O)c(S)cc1Cl
GI50 [1]: > 100 µM (inactive)
GI50 [2]: > 100 µM (inactive)
GI50 [3]: > 100 µM (inactive)
GI50 [4]: > 100 µM (inactive)
GI50 [5]: > 100 µM (inactive)
GI50 [56]: > 100 µM (inactive)
GI50 [6]: > 100 µM (inactive)
GI50 [7]: > 100 µM (inactive)
GI50 [9]: > 100 µM (inactive)
GI50 [10]: > 100 µM (inactive)
GI50 [11]: > 100 µM (inactive)
GI50 [12]: > 100 µM (inactive)
GI50 [13]: > 100 µM (inactive)
GI50 [14]: > 100 µM (inactive)
GI50 [15]: > 100 µM (inactive)
GI50 [16]: > 100 µM (inactive)
GI50 [17]: > 100 µM
GI50 [18]: > 100 µM (inactive)
GI50 [19]: > 100 µM (inactive)
GI50 [20]: > 100 µM (inactive)
GI50 [57]: > 100 µM (inactive)
GI50 [21]: > 100 µM (inactive)
GI50 [22]: > 100 µM (inactive)
GI50 [23]: > 100 µM (inactive)
GI50 [24]: > 100 µM (inactive)
GI50 [25]: > 100 µM (inactive)
GI50 [26]: > 100 µM (inactive)
GI50 [27]: > 100 µM (inactive)
GI50 [28]: 36.6 µM (inactive)
GI50 [29]: > 100 µM (inactive)
GI50 [30]: > 100 µM (inactive)
GI50 [31]: > 100 µM (inactive)
GI50 [32]: > 100 µM (inactive)
GI50 [33]: > 100 µM (inactive)
GI50 [34]: > 100 µM (inactive)
GI50 [35]: > 100 µM (inactive)
GI50 [36]: > 100 µM (inactive)
GI50 [37]: > 100 µM (inactive)
GI50 [38]: > 100 µM (inactive)
GI50 [39]: > 100 µM (inactive)
GI50 [40]: > 100 µM (inactive)
GI50 [41]: > 100 µM (inactive)
GI50 [42]: > 100 µM (inactive)
GI50 [43]: > 100 µM (inactive)
GI50 [44]: > 100 µM (inactive)
GI50 [45]: > 100 µM (inactive)
GI50 [46]: > 100 µM (inactive)
GI50 [47]: > 100 µM (inactive)
GI50 [48]: > 100 µM (inactive)
GI50 [49]: 23.2 µM (inactive)
GI50 [50]: > 100 µM (inactive)
GI50 [51]: > 100 µM (inactive)
GI50 [52]: > 100 µM (inactive)
GI50 [53]: > 100 µM (inactive)
GI50 [55]: > 100 µM (inactive)
GI50 [58]: > 100 µM (inactive)
GI50 [59]: > 100 µM (inactive)
